Activity calls are given as the source filed them.
Columns and labels:
[1] = target: T1, Endoribonuclease toxin MazF (Escherichia coli K-12, UniProt P0AE70); experiment: MazF toxin RNase activators, dose response, biochemical, fluorescence, single-stranded RNA substrate, uHTS hits (AID 588481); type: functional
T1 sequence (P0AE70 whole entry): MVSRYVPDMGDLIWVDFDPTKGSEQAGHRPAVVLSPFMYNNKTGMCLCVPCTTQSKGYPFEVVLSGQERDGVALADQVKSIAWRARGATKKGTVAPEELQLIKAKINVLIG

[2] = target: T1, Endoribonuclease toxin MazF; experiment: fluorescent RNA oligo signal without MazF, dose response, counter-screen for MazEF activator project, biochemical, fluorescence, single-stranded RNase substrate (AID 588502); type: functional
[3] = target: T2, Corticotropin-releasing factor receptor 2/Corticotropin-releasing factor-binding protein (Homo sapiens, UniProt P24387+Q13324); experiment: activators of CRF receptor 2 with binding protein – uHTS hits, confirmation (AID 602473); type: functional; settings: read-out: EC50_Mean
T2 sequence (Q13324 whole entry): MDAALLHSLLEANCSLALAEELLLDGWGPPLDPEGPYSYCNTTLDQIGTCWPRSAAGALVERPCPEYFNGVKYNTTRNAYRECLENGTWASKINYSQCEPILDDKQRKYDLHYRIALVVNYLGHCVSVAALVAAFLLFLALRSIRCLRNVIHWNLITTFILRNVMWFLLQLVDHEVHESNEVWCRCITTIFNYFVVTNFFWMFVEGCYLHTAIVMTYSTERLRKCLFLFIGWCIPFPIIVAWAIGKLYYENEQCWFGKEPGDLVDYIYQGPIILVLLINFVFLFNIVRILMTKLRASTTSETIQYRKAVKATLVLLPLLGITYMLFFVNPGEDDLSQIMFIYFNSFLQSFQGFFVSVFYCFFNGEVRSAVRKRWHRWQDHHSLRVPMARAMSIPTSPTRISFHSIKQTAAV
T2 sequence (P24387 whole entry): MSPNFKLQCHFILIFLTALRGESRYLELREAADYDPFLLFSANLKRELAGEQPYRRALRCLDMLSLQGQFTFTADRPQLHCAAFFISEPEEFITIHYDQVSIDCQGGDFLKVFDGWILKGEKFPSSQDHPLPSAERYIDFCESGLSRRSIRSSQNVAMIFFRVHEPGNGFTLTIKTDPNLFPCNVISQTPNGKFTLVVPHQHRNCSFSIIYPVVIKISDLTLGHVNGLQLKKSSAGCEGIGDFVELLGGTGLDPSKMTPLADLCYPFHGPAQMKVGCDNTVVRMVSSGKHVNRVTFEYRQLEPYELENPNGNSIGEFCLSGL

HEK293 = experiment: cells; type: functional, cell-based; settings: Homo sapiens
[4] = target: T3, Nuclear receptor subfamily 0 group B member 1 (Homo sapiens, UniProt P51843); experiment: Luminescence-based cell-based high throughput dose response assay for inhibitors of the orphan nuclear receptor subfamily 0, group B, member 1 (DAX1; NR0B1). [Related pubchem assays (depositor defined):AID504766, AID504790]; type: functional
T3 sequence (P51843 whole entry): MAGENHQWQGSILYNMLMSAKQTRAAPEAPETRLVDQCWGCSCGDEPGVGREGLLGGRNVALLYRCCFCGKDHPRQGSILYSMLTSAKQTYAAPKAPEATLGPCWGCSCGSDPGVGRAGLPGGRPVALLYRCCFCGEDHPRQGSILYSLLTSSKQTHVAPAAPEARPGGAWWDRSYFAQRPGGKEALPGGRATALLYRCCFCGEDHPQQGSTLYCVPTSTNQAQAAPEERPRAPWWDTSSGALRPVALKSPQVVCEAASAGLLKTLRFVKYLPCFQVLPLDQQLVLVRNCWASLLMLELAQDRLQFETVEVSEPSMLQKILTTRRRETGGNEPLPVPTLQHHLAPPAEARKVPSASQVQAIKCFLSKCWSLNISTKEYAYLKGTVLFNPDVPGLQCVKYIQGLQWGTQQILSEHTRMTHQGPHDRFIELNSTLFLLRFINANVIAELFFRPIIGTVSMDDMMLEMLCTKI

[5] = Luminescence Cell-Based Dose Confirmation HTS to Identify Activators of 5'UTR Stem-Loop Driven Alpha-Synuclein mRNA Translation in H4 Neuroglioblastoma Cells. [Related pubchem assays: 1829 (Project Summary), 1814 (Primary HTS)]; type: functional
[6] = Luminescence Cell-Based Dose Response HTS to Identify Activators of Luciferase Translation or Activity in H4 […] Cells. [Related pubchem assays: 1829 (Project Summary), 1814 (Primary HTS)]; type: functional
cells [7] = type: functional, cell-based
H4 = experiment: Luminescence Cell-Based Dose Response HTS to Identify Activators of 5'UTR Stem-Loop Driven Prion Protein mRNA Translation in H4 Neuroglioblastoma Cells. [Related pubchem assays: 1829 (Project Summary), 1814 (Primary HTS)]; type: functional; settings: Homo sapiens
cells [8] = type: functional, cell-based; remark: listed apart in the source
[9] = Luminescence Cell-Based Dose Retest to Confirm Inhibitors of Cancer Stem Cells. [Related pubchem assays (depositor defined):AID2717, AID2721]; type: functional; settings: Homo sapiens
Jurkat = experiment: antigen receptor-induced NF-kB inhibitors, dose response, Jurkat, luciferase reporter, luminescence, B- and T-cell (AID 489004); type: functional, cell-based; settings: Homo sapiens;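 further: NF-kB luciferase reporter Jurkat cells stimulated with PMA plus ionomycin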
[10] = cytotoxicity in HEK-293T NF-kB-Luc cells, dose response, cytotoxicity control for B/T-cell NF-kB inhibitor project, cell-based, uHTS hits (AID 489019); type: functional;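 further: IC50 reflects cytotoxicity as loss of cell viability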
[11] = inhibitors of HIV Env-driven cell fusion, dose response, cherry-pick (AID 652057); type: functional, cell-based
[12] = CEM21 lymphoblast cell cytotoxicity, dose response, cytotoxicity control for viral fusion inhibitor project, CellTiter-Glo luminescence, cherry-picked (AID 652042); type: functional, cell-based;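 further: potency for signal decrease meaning cytotoxicity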
[13] = ZM109 Env clade C HIV-1 fusion inhibitors, dose response, HeLa effector, CEM target cells, luciferase, cherry-pick (AID 652058); type: functional, cell-based
Paired box protein Pax-8 = Paired box protein Pax-8 (Homo sapiens, UniProt Q06710); experiment: inhibitors of PAX8-driven TPO luciferase reporter, dose response, RMG-I cells, cherry-pick (AID 687027); type: functional, cell-based;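 further: luciferase reporter driven by Pax8 target thyroperoxidase promoter measured by SteadyGlo luminescence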
Sequence of Paired box protein Pax-8 (Q06710 whole entry, the tested form may be a part): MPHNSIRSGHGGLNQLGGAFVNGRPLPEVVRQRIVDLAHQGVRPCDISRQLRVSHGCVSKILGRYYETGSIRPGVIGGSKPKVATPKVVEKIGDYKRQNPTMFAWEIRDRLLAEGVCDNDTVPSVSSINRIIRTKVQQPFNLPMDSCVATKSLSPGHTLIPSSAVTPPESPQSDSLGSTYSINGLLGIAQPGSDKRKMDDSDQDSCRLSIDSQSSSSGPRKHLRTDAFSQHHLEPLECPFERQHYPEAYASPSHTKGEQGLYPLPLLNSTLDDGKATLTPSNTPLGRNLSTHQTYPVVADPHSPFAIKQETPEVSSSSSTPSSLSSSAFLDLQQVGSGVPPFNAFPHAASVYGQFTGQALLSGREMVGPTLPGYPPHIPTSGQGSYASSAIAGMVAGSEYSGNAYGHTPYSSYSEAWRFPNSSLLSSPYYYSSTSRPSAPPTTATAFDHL

[14] = off-target signal loss in HeLa-CEM21 co-culture – HeLa F-luc CTL cells, cherry-picked, counter-screen for HIV-1 Env fusion inhibitor project, dose response (AID 652040); type: functional, cell-based;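 further: potency for signal decrease marking cytotoxic or nonspecific inhibition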
[15] = inhibitors of clade B AD8 Env fusion, dose response, cell-based, cherry-pick (AID 652062); type: functional;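 further: luciferase signal from cell-cell fusion driven by HIV-1 clade B AD8 Env; potency is for inhibitors of fusion seen as a drop in luminescence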
[16] = target: T4, Ubiquitin-conjugating enzyme E2 N (Homo sapiens, UniProt P61088); type: functional;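 further: Dose-response confirmation in a TR-FRET assay detecting UBC13-driven polyubiquitin chain formation, inhibition measured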
T4 sequence (P61088 whole entry): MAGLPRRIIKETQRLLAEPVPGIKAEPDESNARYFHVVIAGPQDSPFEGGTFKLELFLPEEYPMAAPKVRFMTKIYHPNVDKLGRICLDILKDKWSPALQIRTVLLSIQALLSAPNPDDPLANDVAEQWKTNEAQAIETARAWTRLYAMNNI

[17] = target: T5, Microphthalmia-associated transcription factor (Homo sapiens, UniProt O75030); experiment: TRPM1 promoter luciferase signal decrease, dose response, MITF inhibitor project, cell-based, SK-MEL-5, cherry-picked, set 3 (AID 493073); type: functional
T5 sequence (O75030 whole entry): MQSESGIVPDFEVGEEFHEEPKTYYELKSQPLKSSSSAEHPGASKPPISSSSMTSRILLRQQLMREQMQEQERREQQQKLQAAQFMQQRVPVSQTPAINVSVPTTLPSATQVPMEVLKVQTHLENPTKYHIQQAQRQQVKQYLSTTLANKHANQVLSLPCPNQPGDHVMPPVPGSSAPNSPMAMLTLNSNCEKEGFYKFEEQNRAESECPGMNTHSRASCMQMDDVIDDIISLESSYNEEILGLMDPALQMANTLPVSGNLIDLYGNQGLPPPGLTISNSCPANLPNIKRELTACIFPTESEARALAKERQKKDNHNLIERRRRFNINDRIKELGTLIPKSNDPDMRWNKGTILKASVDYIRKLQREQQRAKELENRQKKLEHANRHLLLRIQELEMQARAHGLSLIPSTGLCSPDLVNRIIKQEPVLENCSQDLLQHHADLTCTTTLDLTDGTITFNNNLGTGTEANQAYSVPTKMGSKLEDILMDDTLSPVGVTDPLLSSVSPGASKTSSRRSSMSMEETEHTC

A-375 = experiment: A375 melanoma cell viability reduction, dose response, counter-screen for MITF modulator project, cherry-pick samples, set 2 (AID 540335); type: functional, cell-based; settings: Homo sapiens
[18] = target: T6, DNA repair protein RAD52 homolog (Homo sapiens, UniProt P43351); type: functional, biochemical
T6 sequence (P43351 whole entry): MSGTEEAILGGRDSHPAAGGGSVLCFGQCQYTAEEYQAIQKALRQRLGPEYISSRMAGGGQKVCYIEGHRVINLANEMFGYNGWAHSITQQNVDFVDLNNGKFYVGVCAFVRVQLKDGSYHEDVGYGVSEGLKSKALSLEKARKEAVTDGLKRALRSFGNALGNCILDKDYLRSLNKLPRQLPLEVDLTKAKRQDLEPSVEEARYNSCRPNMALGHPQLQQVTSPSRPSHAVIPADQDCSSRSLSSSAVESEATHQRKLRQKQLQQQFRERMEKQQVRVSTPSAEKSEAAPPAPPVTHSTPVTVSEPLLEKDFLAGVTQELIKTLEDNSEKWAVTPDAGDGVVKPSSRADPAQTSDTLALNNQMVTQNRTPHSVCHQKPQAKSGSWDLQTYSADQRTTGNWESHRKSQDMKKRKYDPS

[19] = target: T7, RNA-binding protein pos-1 (Caenorhabditis elegans, UniProt G5EF15); experiment: inhibitors of POS-1/mex-3 RNA binding, dose response, biochemical, fluorescence polarization (AID 1964);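 further: purified POS-1 fused to maltose binding protein made in E. coli; potency of compounds blocking POS-1 binding to fluorescent RNA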
T7 sequence (G5EF15 whole entry): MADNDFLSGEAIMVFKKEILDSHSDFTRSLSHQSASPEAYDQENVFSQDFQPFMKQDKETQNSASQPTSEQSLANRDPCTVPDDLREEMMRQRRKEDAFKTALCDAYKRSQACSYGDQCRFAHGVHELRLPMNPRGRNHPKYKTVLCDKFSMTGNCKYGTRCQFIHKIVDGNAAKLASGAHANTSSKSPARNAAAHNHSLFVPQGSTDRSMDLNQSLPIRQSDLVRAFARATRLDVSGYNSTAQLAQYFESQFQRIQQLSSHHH

[20] = target: T8, Zinc finger protein mex-5 (Caenorhabditis elegans, UniProt Q9XUB2); experiment: MEX-5/TCR-2 RNA interaction inhibitors, dose response, biochemical, C. elegans, fluorescence polarization (AID 1960)
T8 sequence (Q9XUB2 whole entry): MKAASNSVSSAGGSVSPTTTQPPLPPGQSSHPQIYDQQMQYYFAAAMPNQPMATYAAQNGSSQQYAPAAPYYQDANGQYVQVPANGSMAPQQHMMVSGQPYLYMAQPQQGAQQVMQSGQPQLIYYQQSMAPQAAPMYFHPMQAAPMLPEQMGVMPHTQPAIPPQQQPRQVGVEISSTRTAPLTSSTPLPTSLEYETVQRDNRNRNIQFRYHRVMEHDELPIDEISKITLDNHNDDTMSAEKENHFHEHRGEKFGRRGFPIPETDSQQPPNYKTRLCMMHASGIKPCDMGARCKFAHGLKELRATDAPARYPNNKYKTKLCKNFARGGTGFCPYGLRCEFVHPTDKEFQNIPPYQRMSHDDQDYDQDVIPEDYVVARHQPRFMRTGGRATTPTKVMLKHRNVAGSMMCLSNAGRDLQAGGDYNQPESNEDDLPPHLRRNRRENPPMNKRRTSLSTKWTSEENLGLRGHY

HeLa = experiment: HeLa cell cytotoxicity, dose response, cytotoxicity control, 24 h, cherry-picked samples (AID 504726); type: functional, cell-based; settings: Homo sapiens;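 further: potency for cytotoxicity as loss of luminescence signal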
[21] = target: Beta-2 adrenergic receptor (Homo sapiens, UniProt P07550); experiment: beta2AR agonists driving receptor internalization, dose response, cell-based, FAP fluorogen, flow cytometry, cherry pick 1 (AID 588763); type: functional
Sequence of Beta-2 adrenergic receptor (P07550 whole entry): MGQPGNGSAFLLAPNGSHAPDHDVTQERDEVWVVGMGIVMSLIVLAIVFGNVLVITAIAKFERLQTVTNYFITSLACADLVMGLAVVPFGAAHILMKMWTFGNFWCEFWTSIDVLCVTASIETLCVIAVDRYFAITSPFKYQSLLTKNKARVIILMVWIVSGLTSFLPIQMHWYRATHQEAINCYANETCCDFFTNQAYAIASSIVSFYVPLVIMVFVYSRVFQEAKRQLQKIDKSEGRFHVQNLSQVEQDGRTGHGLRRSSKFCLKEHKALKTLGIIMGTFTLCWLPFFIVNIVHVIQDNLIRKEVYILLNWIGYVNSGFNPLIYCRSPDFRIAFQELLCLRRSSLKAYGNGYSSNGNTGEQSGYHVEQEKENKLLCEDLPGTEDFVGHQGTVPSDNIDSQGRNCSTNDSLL

CSc1nc(-c2ccc(N(C)C)cc2)c(C#N)c(=O)n1C
EC50 [1]: > 99 µM (inactive) | EC50 [2]: > 99 µM (inactive) | EC50 [3]: 7.08 µM (active)

CN(C)S(=O)(=O)c1cc(NC2CC(=O)N(c3ccc(F)cc3)C2=O)ccc1Cl (stereo not drawn)
IC50 (HEK293): > 67.5 µM (inactive) | IC50 [4]: > 67.5 µM (inactive)

COc1ccc(C(=O)NC2=Nc3ccccc3N=C(C)C2c2ccccc2)cc1 (stereo not drawn)
EC50 [5]: 9.66 µM (active) | EC50 [6]: 40.7 µM (active) | EC50 (cells [7]): 34.7 µM (active) | EC50 (H4): 18.9 µM (active) | EC50 (cells [8]): 78.6 µM (active) | IC50 (HEK293): 3.47 µM (active) | IC50 [4]: > 67.5 µM (inactive)

C[C@@H]1O[C@@H](O[C@@H]2C=C3CC[C@@H]4C(CC[C@]5(C)[C@@H](c6ccc(=O)oc6)CC[C@]45O)[C@@]3(C)CC2)[C@H](O)[C@H](O)[C@H]1O (stereo partly drawn)
AC50 [9]: < 0.16 µM (active) | IC50 (Jurkat): 0.33 µM (active) | IC50 [10]: > 80 µM (inactive) | AC50 [11]: 0.799 µM (active) | AC50 [12]: 0.613 µM (active) | AC50 [13]: 0.319 µM (active) | AC50 (Paired box protein Pax-8): < 0.26 µM (active) | AC50 [14]: < 0.26 µM (active) | AC50 [15]: 0.54 µM (active)

O=C(Nc1ccc2oc(-c3ccccc3)nc2c1)c1cc(-n2cnnc2)ccc1Cl
EC50 [1]: > 99 µM (inactive) | EC50 [2]: > 99 µM (inactive)

Cc1c(CCOC(=O)c2ccc(Cl)cc2Cl)sc[n+]1CC(=O)c1ccc(Br)cc1
IC50 [16]: > 20 µM (inactive) | AC50 [17]: 19.8 µM (active) | AC50 (A-375): 23.5 µM (active) | AC50 [18]: 13 µM (active)

Cc1ccc(N=Nc2c(O)[nH]c3ccc(F)cc23)cc1
EC50 [19]: > 300 µM (inconclusive) | EC50 [20]: > 300 µM (inconclusive) | AC50 (HeLa): 251 µM (active) | EC50 [1]: > 99 µM (inactive) | EC50 [2]: 29.9 µM (inactive)

O=C1C2CCCCN2C(=O)N1CCCCN1CCN(c2cccc(C(F)(F)F)c2)CC1 (stereo not drawn)
EC50 [21]: 2.52 µM (active)

— ChEMBL document CHEMBL1201862, “PubChem BioAssay data set” (2004)
